Test results published in patent US20120149708A1, “MODULATORS OF VIRAL TRANSCRIPTION, AND METHODS AND COMPOSITIONS THEREWITH” (George Mason University, priority 2010, published 2012).

Experiments:
Type in all cases: cell-based
[1] = system: J1.1 cells (HIV-1 infected); test: Cell viability by trypan blue exclusion, 48 hours; settings: HIV-1 infected; for % Inhibition (percent dead cells) J1.1: 10 μM, 48 hours
Method: (§1) In brief, the inhibition studies were carried out as follows. HIV-1 infected cells ACH2, J1.1, OM10.1, U1 and uninfected CEM, Jurkat T-cells, and U937 were cultured in media. The appropriate inhibitor was added at a concentration of 10 μM. Cells were treated for 48 hours and cell viability was determined using trypan blue exclusion method. Results of such a screen for 19 inhibitors is shown in Table 1 where percent dead cells are indicated each drug tested.
(§2) Again HIV-1 infected and uninfected cells were treated with eighteen Formula I compounds at a drug concentration of 50 nm. Forty-eight hours after treatment, cytotoxicity was determined by trypan blue dye exclusion. Percent inhibition was calculated after obtaining the cell density for each well of the tissue culture plate at the end of 48 hrs.

[2] = system: U1 cells (HIV-1 infected); test: Cell viability by trypan blue exclusion, 48 hours; settings: HIV-1 infected; for % Inhibition (percent dead cells) U1: 10 μM, 48 hours
Method: as §1, §2

[3] = system: OM10.1 cells (HIV-1 infected); test: Cell viability by trypan blue exclusion, 48 hours; settings: HIV-1 infected; for % Inhibition (percent dead cells) OM10.1: 10 μM, 48 hours
Method: as §1, §2

[4] = system: HIV-1 infected and uninfected cells; test: Classification of inhibitors by effect on viability of infected versus uninfected cells; settings: high
From the text: The inhibitors were classified into three categories: high, moderate or poor, according to their effect on cellular viability in both HIV-1 infected and uninfected cells. Among the compounds tested in this study, CR8, a purine analog bearing a 2-pyridyl group para to the phenyl ring position 6 of the purine was the most promising drug candidate that killed HIV-1 infected cells, while having little or no effect on the death of uninfected cells.

CEM cells (uninfected) = test: Cell viability by trypan blue exclusion, 48 hours; settings: for % Inhibition (percent dead cells) CEM: 10 μM, 48 hours
Method: (§3) TZM-bl cell lines were grown in Dulbecco's modified Eagle's medium supplemented with fetal bovine serum (FBS) (10%, v/v), 2 mM L-glutamine, and antibiotics (penicillin 100 U/ml, streptomycin […]) (cDMEM). HCT116 WT and HCT116 Dicer−/−cell lines were grown in McCoy's medium supplemented with FBS (10%, v/v), 2mM L-glutamine, and antibiotics (penicillin 100 U/ml, streptomycin […]). CEM, ACH2, Jurkat and U937 cells were grown in RPMI 1640 supplemented with FBS, L-glutamine, and antibiotics (penicillin 100 U/ml, streptomycin […]). All cell lines were maintained at 37° C. in 5% (v/v) CO2.
(§4) ACH2 cells are infected with HIV-1; TZM-bl cells contain a stably-integrated HIV-1 LTR-Luciferase reporter; CEM, Jurkat, and U937 cells are uninfected. Transfections were carried out using Attractene (Qiagen) lipid reagent. Cells were cultured to confluence and pelleted at 4° C. for 15 min at 3,000 rpm. The cell pellets were washed twice with 25 ml of phosphate-buffered saline (PBS) with Ca2+ and Mg2+ (Quality Biological) and centrifuged once more. Cell pellets were resuspended in lysis buffer (50 mM Tris-HCl, pH 7.5, 120 mM NaCl, 5 mM EDTA, 0.5%, v/v, NP-40, 50 mM NaF, 0.2 mM Na3VO4, 1 mM DTT, one complete protease cocktail tablet/50 ml (Roche) and incubated on ice for 20 min, with gentle vortexing every 5 min. Cell lysates were transferred to eppendorf tubes and were centrifuged at 10,000 rpm for 10 min. Supernatants were transferred to a fresh tube where protein concentrations were determined using Bio-Rad protein assay (Bio-Rad, Hercules, Calif.).
as §1, §2

U937 cells (uninfected) = test: Cell viability by trypan blue exclusion, 48 hours; settings: for % Inhibition (percent dead cells) U937: 10 μM, 48 hours
Method: as §3, §4, §1, §2

[5] = system: Jurkat T-cells (uninfected); test: Cell viability by trypan blue exclusion, 48 hours; settings: for % Inhibition (percent dead cells) Jurkat: 10 μM, 48 hours
Method: as §3, with “CO2. […]” for “CO2.”
as §1, §2

[6] = system: ACH2 cells (HIV-1 infected); test: Cell viability by trypan blue exclusion, 48 hours; settings: HIV-1 infected; for % Inhibition (percent dead cells) ACH2: 10 μM, 48 hours
Method: as §3, with “CO2. […]” for “CO2.”
as §1, §2

HIV-1 LTR-CAT reporter = test: CAT assay of Tat-mediated transactivation in HCT116 WT and Dicer-/- cells; settings: HCT116 WT (Dicer) versus Dicer-/-; 48 hrs; Flavopiridol, CR8#13, F07#13 100 nm, 9AA 1000 nm
Method: Six hours later, the transfected cells were treated with DMSO, Flavopirodol (100 nm), CR8#13 (100 nm), F07#13 (100 nm), and 9AA (1000 nm). Treated cells were incubated in complete DMEM for 48 hrs at 37° C. Cells were harvested and cell extracts were used for CAT analysis. One tenth the amount of HCT116 Dicer−/−extract compared to HCT116 WT was used for CAT analysis. […] The corresponding bar graphs in A and B show values that represent the percentage of conversion of the [14C] chloramphenicol substrate in the CAT assay.
Various cells lines were transfected with the HIV-1 LTRCAT plasmid and pc-Tat to initiate the LTR transcription, and subsequently subjected to various drug treatments. After 48 hrs, cells were lysed and CAT assays were performed as previously described (Guendel et al, 2009; Van Duyne et al, 2008; Easley et al, 2010).
To evaluate the role on microRNA machinery in inhibition of viral transcription activity, HCT116 colon carcinoma cell lines that either contained a WT Dicer (HCT116 WT) or lacked the Dicer protein (HCT116 Dicer-−/−) were first transfected with the HIV-1 LTR-CAT reporter construct. The HIV-1 LTR transcription was activated with pc-Tat and following incubation for 6 hours was treated with DMSO (negative control), Flavopiridol (positive control), CR8#13, F07#13, or 9AA.
Cells were harvested 48 hrs-post treatment and processed for CAT assays (FIGS. 3A and B). […] Based on this observation the inventors hypothesize that the microRNA machinery, Dicer and Drosha, plays an inhibitory role in HIV-1 transcription.

[7] = 10 μM, moderate or poor by effect on viability of infected and uninfected cells

Row | SMILES | % Inhibition (percent dead cells) J1.1 [1] | % Inhibition (percent dead cells) U1 [2] | % Inhibition (percent dead cells) OM10.1 [3] | Selectivity [4, 7] | % Inhibition (percent dead cells) CEM (CEM cells (uninfected)) | % Inhibition (percent dead cells) U937 (U937 cells (uninfected)) | % Inhibition (percent dead cells) Jurkat [5] | % Inhibition (percent dead cells) ACH2 [6] | other results
1 | CC(C)Oc1ccnc2[nH]cc(-c3ccnc(N)n3)c12 [Meriolin 6] | +++ (~75%) | − (1-5%) | ++++ (~90%) | High | − (1-5%) | ++ (~50%) | − (1-5%) | +++ (~75%) | 
2 | CC[C@H](CO)Nc1nc(Nc2cccc(-c3ccccn3)c2)c2ncn(C(C)C)c2n1 [R-DRF053] | − (1-5%) | − (1-5%) | − (1-5%) | Poor | − (1-5%) | − (1-5%) | − (1-5%) | − (1-5%) | 
3 | CC[C@H](CO)Nc1nc(NCc2ccc(-c3ccccn3)cc2)n2ncc(C(C)C)c2n1 [MRT3-028, R-2-(8-isopropyl-4-(4-(pyridine-2-yl)benzylamino)pyrazolo[1,5-α]-1,3,5-triazine-2-ylamino)butan-1-ol] |  |  |  |  |  |  |  |  | Inhibition Percentage J1.1 ([1]; 50 nM, 48 hrs): +++ (~75%); Inhibition Percentage U1 ([2]; 50 nM, 48 hrs): + (~25%); Selectivity ([4]; 50 nM, moderate or poor): High; Inhibition Percentage CEM (CEM cells (uninfected); 50 nM, 48 hrs): ++ (~50%); Inhibition Percentage ACH2 ([6]; 50 nM, 48 hrs): +++ (~75%)
4 | Nc1nccc(-c2c3c(O)ccnc3n3c(N)nccc23)n1 [Variollin B] | + (~25%) | − (1-5%) | − (1-5%) | Moderate | − (1-5%) | − (1-5%) | − (1-5%) | ++ (~50%) | 
5 | CN1C(=O)C(=C2Nc3ccccc3C2=NO)c2cccc(Br)c21 [1-methyl-7-bromo-indirubin-3′-oxime] | − (1-5%) | − (1-5%) | − (1-5%) | Poor | − (1-5%) | − (1-5%) | − (1-5%) | − (1-5%) | 
6 | CCOc1ccnc2[nH]cc(-c3ccnc(N)n3)c12 [Meriolin4] | +++ (~75%) | +++ (~75%) | +++ (~75%) | High | + (~25%) | ++ (~50%) | ++ (~50%) | +++ (~75%) | 
7 | COc1ccnc2[nH]cc(-c3ccnc(N)n3)c12 [Meriolin 3] | + (~25%) | − (1-5%) | − (1-5%) | Moderate | − (1-5%) | − (1-5%) | − (1-5%) | ++ (~50%) | 
8 | Nc1c2ccccc2nc2ccccc12 [9AA] |  |  |  |  |  |  |  |  | inhibition of viral transcription (CAT) (HIV-1 LTR-CAT reporter): only moderate inhibitory effects
9 | CCCOc1ccnc2[nH]cc(-c3ccnc(N)n3)c12 [Meriolin5] | ++ (~50%) | − (1-5%) | ++++ (~90%) | High | − (1-5%) | ++ (~50%) | − (1-5%) | +++ (~75%) | 
10 | CC(C)c1cnn2c(NCc3ccc(-c4ccccn4)cc3)nc(N[C@H](CO)C(C)O)nc12 (stereo partly drawn) [MRT3-007, (2R, 3R)-2-(8-isopropyl-4-(4-(pyridine-2-yl)benzylamino)pyrazolo[1,5-α]-1,3,5-triazine-2-ylamino)butane-1,3-diol] |  |  |  |  |  |  |  |  | inhibition at 0.05 µM ([1]; Human immunodeficiency virus 1, 48 h, 50 nM, 48 hrs, read-out: Inhibition Percentage J1.1): 50%; inhibition at 0.05 µM ([2]; Human immunodeficiency virus 1, 48 h, 50 nM, 48 hrs, read-out: Inhibition Percentage U1): 50%; inhibition at 0.05 µM ([3]; Human immunodeficiency virus 1, 50 nM, 48 hrs, read-out: Inhibition Percentage OM10.1): 50%; Selectivity ([4]; 50 nM, moderate or poor): Moderate; inhibition at 0.05 µM (CEM cells (uninfected); Homo sapiens, CCRF-CEM, 48 h, 50 nM, 48 hrs, read-out: Inhibition Percentage CEM): 25%; inhibition at 0.05 µM (U937 cells (uninfected); Homo sapiens, U-937, 50 nM, 48 hrs, read-out: Inhibition Percentage U937): 25%; inhibition at 0.05 µM ([5]; Homo sapiens, Jurkat, 50 nM, 48 hrs, read-out: Inhibition Percentage Jurkat): 25%; inhibition at 0.05 µM ([6]; Human immunodeficiency virus 1, ACH-2, 48 h, 50 nM, 48 hrs, read-out: Inhibition Percentage ACH2): 50%
